Entries after “also recorded” stand apart in the source; their conditions may differ. Read-outs that look alike come from different tables or passages of the source.

One data set addresses T1, HsNMT1 (Homo sapiens, UniProt P30419).
T1 sequence (P30419 1-496): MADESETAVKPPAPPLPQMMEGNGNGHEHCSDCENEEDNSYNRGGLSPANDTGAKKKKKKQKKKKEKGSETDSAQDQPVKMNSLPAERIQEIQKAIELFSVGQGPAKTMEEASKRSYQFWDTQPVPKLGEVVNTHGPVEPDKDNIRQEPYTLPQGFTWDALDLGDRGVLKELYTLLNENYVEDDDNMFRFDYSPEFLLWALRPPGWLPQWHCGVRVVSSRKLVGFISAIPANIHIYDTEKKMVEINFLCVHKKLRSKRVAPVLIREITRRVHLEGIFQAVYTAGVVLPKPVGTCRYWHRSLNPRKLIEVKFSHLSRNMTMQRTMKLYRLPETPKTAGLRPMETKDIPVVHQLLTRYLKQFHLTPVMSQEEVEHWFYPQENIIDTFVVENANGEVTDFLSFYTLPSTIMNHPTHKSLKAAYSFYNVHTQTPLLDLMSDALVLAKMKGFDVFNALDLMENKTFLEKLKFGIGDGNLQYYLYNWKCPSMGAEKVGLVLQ
Briefly: HsNMT1 enzyme assay (CPM fluorescence). As to conditions: apparent Ki calculated from IC50 with Cheng–Prusoff equation, read-out: HsNMT Ki. It counts as biochemical. On the procedure: Enzyme assay information. All IC 50 determinations were carried out using a 7-diethylamine-3-(4’maleimidylphenyl)-4-methylcoumarin (CPM) fluorescence assay, as described by previously. […]
IC 50 of an inhibitor was calculated by a nonlinear regression analysis using GraFit 7.0.1 version (Erithacus Software Limited, UK).The values are the mean […]
(§1) Ki values were calculated from the experimentally determined IC 50 values, the substrate concentration ([S]) and the Michaelis-Menten constant (K m) as described by […]

For another data set, the target named is T2, PfNMT (Plasmodium falciparum, UniProt Q9U419).
T2 sequence (Q9U419 1-410): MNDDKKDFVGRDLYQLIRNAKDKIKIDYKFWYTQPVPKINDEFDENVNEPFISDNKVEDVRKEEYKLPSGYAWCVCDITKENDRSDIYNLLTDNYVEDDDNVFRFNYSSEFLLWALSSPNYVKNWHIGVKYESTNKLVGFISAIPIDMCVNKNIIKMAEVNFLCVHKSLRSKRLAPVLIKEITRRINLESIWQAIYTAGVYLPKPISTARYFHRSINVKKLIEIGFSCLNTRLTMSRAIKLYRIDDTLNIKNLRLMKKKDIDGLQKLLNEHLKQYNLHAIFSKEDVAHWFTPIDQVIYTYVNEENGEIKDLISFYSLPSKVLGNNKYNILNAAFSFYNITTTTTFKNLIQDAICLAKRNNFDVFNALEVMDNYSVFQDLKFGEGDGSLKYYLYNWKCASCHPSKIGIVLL
Description: biochemical. It counts as biochemical. The following applies: for PfNMT LE: LE = [–log(Ki)](1.374)/(no. of heavy atoms); for Ki: apparent Ki calculated from IC50 with Cheng–Prusoff equation. Here is the method:
(§2) Enzyme assay information. All IC 50 determinations were carried out using a 7-diethylamine-3-(4’maleimidylphenyl)-4-methylcoumarin (CPM) fluorescence assay, as described by previously. 2–4 The HsNMT1, PfNMT and PvNMT assays are as described in the literature, for LdNMT the final enzyme concentration and peptide substrates are: [LdNMT]: 400 ng/mL; LdNMT Peptide Substrate: Homo sapiens […]
(§3) p60src (2-16) with sequence […]-NH 2 and the final concentration was 4.0 μM. IC 50 of an inhibitor was calculated by a nonlinear regression analysis using GraFit 7.0.1 version (Erithacus Software Limited, UK).The values are the mean value of two determinations; standard deviation is within 20% of the IC 50 unless […]
as §1

The target of another data set is T3, PvNMT (Plasmodium vivax, UniProt A5K1A2).
T3 sequence (A5K1A2 1-410): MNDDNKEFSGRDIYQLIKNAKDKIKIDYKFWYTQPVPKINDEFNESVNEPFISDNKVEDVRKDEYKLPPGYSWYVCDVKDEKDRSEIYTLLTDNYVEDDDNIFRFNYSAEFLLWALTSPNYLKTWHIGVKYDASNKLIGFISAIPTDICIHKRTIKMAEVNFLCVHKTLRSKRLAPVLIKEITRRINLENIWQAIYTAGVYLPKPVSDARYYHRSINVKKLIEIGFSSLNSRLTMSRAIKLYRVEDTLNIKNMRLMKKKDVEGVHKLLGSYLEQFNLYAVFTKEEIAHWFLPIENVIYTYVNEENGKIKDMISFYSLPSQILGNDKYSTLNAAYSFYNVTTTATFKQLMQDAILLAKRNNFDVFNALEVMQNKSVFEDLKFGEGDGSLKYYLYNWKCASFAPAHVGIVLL
Briefly: biochemical. It counts as biochemical. As to conditions: for PvNMT LE: LE = [–log(Ki)](1.374)/(no. of heavy atoms); for Ki: apparent Ki calculated from IC50 with Cheng–Prusoff equation. On the procedure: as §2, §3, §1

In data set [1] the target is LdNMT (Leishmania donovani, UniProt D0AB09). Briefly: biochemical. In kind it is biochemical. The following applies: for Ki: apparent Ki calculated from IC50 with Cheng–Prusoff equation. Here is the method: as §2
(§4) was 4.0 μM. IC 50 of an inhibitor was calculated by a nonlinear regression analysis using GraFit 7.0.1 version (Erithacus Software Limited, UK).The values are the mean […]
as §1

In data set [2] the test system is LdNMT. Description: biochemical. It counts as biochemical. On the procedure: as §2, §4, §1
The subject of another data set is L. donovani amastigotes. Briefly: L. donovani ex-vivo amastigotes inhibition assay (alamar blue). It counts as cell-based, Leishmania donovani. As to conditions: for EC50: Leishmania donovani, ex vivo L. donovani amastigotes, 72 hour incubation, read-out: Ld EC50. On the procedure:
L. donovani ex-vivo amastigotes inhibition assay. Assays were carried out as
described by Paape and colleagues.
recorded with a 590nm±10nm bandpass filter, POLARstar Optima). Parasites cultured
[1-(readout-medium)/(positive-medium)] x 100%. Assays were carried out in
Macrophage toxicity test. Assays were carried out as described by Paape and […]
(In general: Resazurin is reduced to fluorescent resorufin, in cell work by metabolically active cells.)

Data set [3] has as its system bone marrow-derived macrophage (BMDM). The following applies: 72 h.
Description: (§5) colleagues.6 Briefly, bone marrow-derived macrophage (BMDM, 4.2 × 10^4/well of
(§6) 96-well plate ) were incubated at the relevant concentrations of test compounds in
(§7) DMEM medium containing 4% L929 cell and 10% FCS (fetal calf serum). Cells were
(§8) incubated at 37 °C and 5% CO2 for 72 hours. Aalamar blue (10% v/v) was added to
(§9) measuring the fluorescence as described above. Medium without cells containing the
(§10) corresponding concentration of compound was used as a medium control. Assays
were performed in duplicate.
Data set [4] is described as follows: Stability on incubation over a wide pH range. It counts as physicochemical. The following applies: 37 °C, pH 1–10, 24 hours, data not shown. The source says: The binding mode of 10j to Leishmania major NMT (98% sequence identity to LdNMT with closely superimposable ligand binding sites)[14],[29] was confirmed by determination of the crystal structure of the ternary complex of LmNMT, myrisotyl-CoA and 10j (PDB ID:; 5a27). The inhibitor binds in the expected site adjacent to the enzyme's C-terminal carboxylate to which its piperidine forms an ion pairing interaction. This and other key interactions are conserved in a related series in PvNMT.[24] […] This ‘ring opening’ phenomenon has been observed in related compounds within the program,[27] although to our knowledge, it has not been reported elsewhere. The origin of the ring-opened species observed in the crystals remains unclear, and further investigation is underway to determine the cause of this discrepancy (such as potential radiation damage). As characterisation of the compounds was consistent with the proposed oxadiazoles, the development of the series was continued.

The test system of data set [5] is bone marrow-derived macrophage (BMDM). Briefly: Macrophage toxicity test (alamar blue). The following applies: top concentration tested 90 μM.
Description: as §5, §6, §7, §8, §9, §10
were performed in duplicate.

Sequence of LdNMT (Leishmania donovani, UniProt D0AB09) (D0AB09 entry or part of it): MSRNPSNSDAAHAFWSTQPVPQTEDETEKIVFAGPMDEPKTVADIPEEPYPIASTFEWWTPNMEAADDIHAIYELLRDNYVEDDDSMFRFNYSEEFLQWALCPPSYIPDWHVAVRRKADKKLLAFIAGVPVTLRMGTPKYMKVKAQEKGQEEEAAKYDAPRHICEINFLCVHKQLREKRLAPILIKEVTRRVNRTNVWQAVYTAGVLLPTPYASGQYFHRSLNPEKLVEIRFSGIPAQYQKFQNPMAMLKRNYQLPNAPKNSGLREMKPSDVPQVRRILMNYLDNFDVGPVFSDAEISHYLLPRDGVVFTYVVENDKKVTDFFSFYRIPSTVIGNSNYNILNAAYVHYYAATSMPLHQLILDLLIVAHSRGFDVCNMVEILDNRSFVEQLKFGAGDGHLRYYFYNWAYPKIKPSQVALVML

As for `COc1cccc(COC(=O)c2sc3ccccc3c2OC2CCNCC2)c1` [Compound 1], the Ki on HsNMT1 is 3.2 µM; at PfNMT, 0.83 µM; on PvNMT it was 0.08 µM; on LdNMT [1] ([…], read-out: LdNMT Ki) it was 5.82 µM. Further, the “PfNMT LE” value on PfNMT is listed as 0.30. On PvNMT, the “PvNMT LE” value was 0.35.
In the case of `COc1cccc(COC(=O)c2sccc2OC2CCNCC2)c1` [Compound 5], the Ki at HsNMT1 is more than 100 µM; at PfNMT, more than 100 µM; at PvNMT, 6.5 µM; at LdNMT [1] ([…], read-out: LdNMT Ki), 0.73 µM. Moreover, the “PvNMT LE” value on PvNMT stood at 0.30. Besides, on LdNMT [1], the “LdNMT LE” value was 0.35. In addition, the “improvement in LdNMT enzyme affinity” value on LdNMT [1] stood at 8 fold. The same molecule registered a 50% inhibitory concentration (IC50) on LdNMT [1] (experimentally determined, substrate 4.0 μM) of 0.82 ± 0.14 µM.
Turning to `COc1cccc(COC(=O)c2ccccc2OC2CCNCC2)c1` [Compound 6], the Ki is more than 100 µM on HsNMT1; 6 µM at PfNMT; 2.42 µM on PvNMT; 0.28 µM on LdNMT [1] ([…], read-out: LdNMT Ki). In addition, the “PfNMT LE” value at PfNMT was determined as 0.29. Besides, the “PvNMT LE” value on PvNMT was determined as 0.31. Besides, the “LdNMT LE” value at LdNMT [1] was 0.36.
Turning to `COc1cccc(Cc2noc(-c3ccccc3OC3CCNCC3)n2)c1` [Compound 10a], the Ki at HsNMT1 was 1.24 µM. The “selectivity in favour of the parasite enzyme (LdNMT over HsNMT)” value in the data set with LdNMT [2] is recorded as 20 fold. For the same molecule, on LdNMT [1], the “LdNMT LE” value is on record as 0.37. Besides, the “improvement in LdNMT enzyme affinity” value on LdNMT [1] (5 relative to 1, 10a relative to 6) is listed as ~ 4 fold. In the data set on L. donovani amastigotes, the concentration for a half-maximal effect (EC50) was more than 30 µM.
As for `COc1cccc(Cc2noc(-c3cccc(OC)c3OC3CCNCC3)n2)c1` [Compound 10b], the Ki at HsNMT1 is 7.23 µM; at LdNMT [1] ([…], read-out: LdNMT Ki) it was 4.02 µM. The “LdNMT LE” value at LdNMT [1] is recorded as 0.26.
On the same counts, the results for `COc1cccc(Cc2noc(-c3cccc(C)c3OC3CCNCC3)n2)c1` [Compound 10c] are 7.44 µM, 1.43 µM and 0.29.
On the same counts, the results for `COc1cccc(Cc2noc(-c3ccc(C)cc3OC3CCNCC3)n2)c1` [Compound 10d] are 4.64 µM, 5.18 µM and 0.26.
For the molecule `COc1cccc(Cc2noc(-c3ccc(OC)cc3OC3CCNCC3)n2)c1` [Compound 10e], the Ki at LdNMT [1] ([…], read-out: LdNMT Ki) is 3.04 µM.
Turning to `COc1cccc(Cc2noc(-c3ccc(Cl)cc3OC3CCNCC3)n2)c1` [Compound 10f], on LdNMT [1] (LdNMT Ki, Km 32.7 μM, substrate 4.0 μM), the Ki is […].
Consider `COc1cccc(Cc2noc(-c3ccc(F)cc3OC3CCNCC3)n2)c1` [Compound 10g], for which the “Macrophage LD50” value in data set [3] came out at 29.5 µM.
For `COc1cccc(Cc2noc(-c3ccc(Br)cc3OC3CCNCC3)n2)c1` [Compound 10h], the Ki at LdNMT [1] ([…], read-out: LdNMT Ki) is 0.68 µM.
As for `COc1cccc(Cc2noc(-c3cc(C)ccc3OC3CCNCC3)n2)c1` [Compound 10i], the Ki at LdNMT [1] ([…], read-out: LdNMT Ki) is 0.24 µM.
As for `COc1cccc(Cc2noc(-c3cc(Cl)ccc3OC3CCNCC3)n2)c1` [Compound 10j], the 50% effective concentration (EC50) in the data set with L. donovani amastigotes is 6.7 µM. The “Macrophage LD50” value in data set [3] stood at 18.0 µM. In addition, the degradation on incubation result in data set [4] is “no degradation”.
As to `COc1cccc(Cc2noc(-c3cc(OC)ccc3OC3CCNCC3)n2)c1` [Compound 10k], the EC50 with L. donovani amastigotes is 13.5 µM. Also, in data set [3], the “Macrophage LD50” value came out at 27.9 µM.
`Cc1nn(C)c(C)c1Cc1nnc(-c2cc(Cl)ccc2OC2CCNCC2)o1` [Compound 13]: the “macrophage toxicity” value in data set [5] is listed as “did not display any macrophage toxicity; also recorded: no macrophage toxicity”. The Ki at LdNMT [1] ([…], read-out: LdNMT Ki) was 0.01 µM. Also, the EC50 in the data set on L. donovani amastigotes is more than 50 µM. For the same molecule, in the data set on L. donovani amastigotes (up to 50 μM), the “effect against ex vivo amastigotes” value is “no observed effect; also recorded: failed to inhibit”. Besides, in data set [3], the “Macrophage LD50” value was more than 90 µM.

The term IC50 denotes the concentration at which inhibition is half-maximal. As usually defined, the EC50 is the concentration that produces a half-maximal response.
